Source: patent US20200078468A1, “NEUROTENSIN RECEPTOR BINDING CONJUGATES AND FORMULATIONS THEREOF” (priority 2016, published 2020)

biological target: T1, human NTSR1 (Homo sapiens, UniProt P30989); test: radioligand-receptor binding assay, [125I] labeled neurotensin (Eurofins Panlabs); settings: [125I] neurotensin 0.02 nM, membranes from NTSR1 expressing HEK-293 cells, 45 minute incubation, Cheng and Prusoff; read-out: NTSR1 binding Ki
T1 construct: host or cells: HEK-293 cells (membrane preparations)
Experimental: Conjugates were assessed in an in vitro assay evaluating binding to NTSR1. A radioligand-receptor binding assay was conducted at Eurofins Panlabs (Taiwan) to determine the affinity of conjugates described herein to NTSR1. The assay measures binding of radiolabeled ligand, [^125I] labeled neurotensin, to human NTSR1 using membrane preparations from NTSR1 expressing HEK-293 cells (Human embryonic kidney cells 293). Membranes were incubated with radiolabeled neurotensin (0.02 nM) in the presence of conjugate/compound starting at a dose of either 100 nM, or 10 nM, using 3× serial dilutions to obtain a 6-pt curve. After a 45 minute incubation, membranes were filtered and washed 3× and counted to determine the remaining [^125I] neurotensin bound to the receptor. IC50 values were determined by a non-linear, least squares regression analysis using MathIQ™ (ID Business Solutions Ltd., UK). The Ki values were calculated using the equation of Cheng and Prusoff (Cheng and Prusoff, Biochem. Pharmacol. 22:3099-3108, 1973) using the observed IC50 of the tested conjugate/compound, the concentration of radioligand employed in the assay, and the historical values for the Kd of the ligand obtained at Eurofins.

T1 sequence (P30989 whole entry): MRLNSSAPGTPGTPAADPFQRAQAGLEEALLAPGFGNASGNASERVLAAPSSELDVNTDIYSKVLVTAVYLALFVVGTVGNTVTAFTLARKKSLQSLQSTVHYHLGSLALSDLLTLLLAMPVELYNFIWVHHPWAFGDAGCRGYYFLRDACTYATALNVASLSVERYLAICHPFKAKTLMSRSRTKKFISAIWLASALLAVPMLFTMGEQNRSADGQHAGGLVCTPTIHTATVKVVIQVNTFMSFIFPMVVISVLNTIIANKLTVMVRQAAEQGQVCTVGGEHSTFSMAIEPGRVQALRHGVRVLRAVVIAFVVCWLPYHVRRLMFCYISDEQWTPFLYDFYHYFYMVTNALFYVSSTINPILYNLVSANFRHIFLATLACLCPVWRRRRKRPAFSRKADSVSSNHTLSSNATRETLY

| Compound | Ki [nM] |
| --- | --- |
| COc1cc2cc(c1Cl)N(C)C(=O)C[C@H](OC(=O)[C@H](C)N(C)C(=O)CCSC1CC(=O)N(CCCNC(=O)CNC(=O)[C@H](CC(C)C)NC(=O)[C@H](Cc3ccccc3)NC(=O)CNC(=O)CCCCCN3C(=O)CC(SCCC(=O)NCCCC[C@H](NC(C)=O)C(=O)N4CCC[C@H]4C(=O)N[C@H](CCCNC(=N)N)C(=O)N[C@@H](CCCNC(=N)N)C(=O)N4CCC[C@H]4C(=O)N[C@@H](Cc4ccc(O)cc4)C(=O)N[C@H](C(=O)N[C@@H](C[Si](C)(C)C)C(=O)O)C4CCCCC4)C3=O)C1=O)[C@]1(C)O[C@H]1[C@H](C)[C@@H]1C[C@@](O)(NC(=O)O1)[C@H](OC)/C=C/C=C(\C)C2 (stereo partly drawn) [Compound 41] | 0.89 |
| COc1cc2cc(c1Cl)N(C)C(=O)C[C@H](OC(=O)[C@H](C)N(C)C(=O)CCSC1CC(=O)N(CCCNC(=O)CNC(=O)[C@H](CC(C)C)NC(=O)[C@H](Cc3ccccc3)NC(=O)CNC(=O)CCCCCN3C(=O)CC(SCCC(=O)NCCCC[C@H](NC(C)=O)C(=O)N4CCC[C@H]4C(=O)N[C@@H](CCCCN)C(=O)N[C@@H](CCCCN)C(=O)N4CCC[C@H]4C(=O)N[C@@H](Cc4ccc(O)cc4)C(=O)N[C@@H](C[Si](C)(C)C)C(=O)N[C@@H](C[Si](C)(C)C)C(=O)O)C3=O)C1=O)[C@]1(C)O[C@H]1[C@H](C)[C@@H]1C[C@@](O)(NC(=O)O1)[C@H](OC)/C=C/C=C(\C)C2 (stereo partly drawn) [Compound 48] | > 10 |
| CC[C@H](C)[C@H](NC(=O)[C@H](Cc1ccc(Cl)c(Cl)c1)NC(=O)[C@@H]1CCCN1C(=O)[C@H](CCCNC(=N)N)NC(=O)[C@@H](CCCNC(=N)N)NC(=O)[C@@H]1CCCN1C(=O)[C@H](CCCCNC(=O)CCSC1CC(=O)N(CCCCCC(=O)NCC(=O)N[C@@H](Cc2ccccc2)C(=O)N[C@@H](CC(C)C)C(=O)NCC(=O)NCCCN2C(=O)CC(SCCC(=O)N(C)[C@@H](C)C(=O)O[C@H]3CC(=O)N(C)c4cc(cc(OC)c4Cl)C/C(C)=C/C=C/[C@@H](OC)[C@@]4(O)C[C@H](OC(=O)N4)[C@@H](C)[C@@H]4O[C@@]34C)C2=O)C1=O)NC(C)=O)C(=O)N[C@@H](C[Si](C)(C)C)C(=O)O (stereo partly drawn) [Compound 47] | > 10 |
| CO[C@H]1C(=O)[C@]2(C)[C@@H](OC)C[C@H]3OC[C@@]3(OC(C)=O)[C@H]2[C@H](OC(=O)c2ccccc2)[C@]2(O)C[C@H](OC(=O)[C@H](OC(=O)OCCSSC(C)(C)[C@H](NC(C)=O)C(=O)N3CCC[C@H]3C(=O)N[C@@H](CCCNC(=N)N)C(=O)N[C@@H](CCCNC(=N)N)C(=O)N3CCC[C@H]3C(=O)N[C@@H](Cc3ccc(O)cc3)C(=O)N[C@H](C(=O)N[C@@H](CC(C)C)C(=O)O)C(C)(C)C)[C@@H](NC(=O)OC(C)(C)C)c3ccccc3)C(C)=C1C2(C)C [Compound 2] | 3.97 |
| COc1cc2cc(c1Cl)N(C)C(=O)C[C@H](OC(=O)[C@H](C)N(C)C(=O)CCSC1CC(=O)N(CCCNC(=O)CNC(=O)[C@H](CC(C)C)NC(=O)[C@H](Cc3ccccc3)NC(=O)CNC(=O)CCCCCN3C(=O)CC(SCCC(=O)NCCCC[C@H](NC(C)=O)C(=O)N4CCC[C@H]4C(=O)N[C@H](CCCNC(=N)N)C(=O)N[C@@H](CCCNC(=N)N)C(=O)N4CCC[C@H]4C(=O)N[C@@H](Cc4ccc(O)cc4)C(=O)N[C@H](C(=O)N[C@@H](C[Si](C)(C)C)C(=O)O)C4CCCC4)C3=O)C1=O)[C@]1(C)O[C@H]1[C@H](C)[C@@H]1C[C@@](O)(NC(=O)O1)[C@H](OC)/C=C/C=C(\C)C2 (stereo partly drawn) [Compound 42] | 0.64 |

test system: SW48 (human colon cancer cells); test: inhibition of SW48 cell proliferation (CellTiter Glo); format: cell-based; settings: NTSR1 scrambled compound; 72 hrs; read-out: SW-48 proliferation IC50
Experimental: Conjugates were assessed in an in vitro assay evaluating inhibition of cell proliferation. SW48 (human colon cancer cells, ATCC®), cells were plated in 96 well, flat-bottomed plates (Costar) at a concentration of 5,000 cells/well. Cells were then incubated at 37° C. with 5% CO2 for 24 hrs. After 24 hrs, cells were treated with 0.01% DMSO or compound. Compounds were added at a starting dose of 10 μM and three fold serial dilutions were done for a total often points. Following compound addition, cells were incubated at 37° C. with 5% CO2 for 72 hrs. Proliferation was measured by CellTiter Glo reagent using the standard protocol (Promega) and a Glomax multi+detection system (Promega). Percent proliferation inhibition was calculated using the following formula: % inhibition=(control−treatment)/control*100. Control is defined as vehicle alone. IC50 curves were generated using the nonlinear regression analysis (four parameter) with GraphPad Prism 6.
Conjugates are assessed for receptor-dependent cytotoxicity by the difference between an NTSR1-targeting conjugate, and the corresponding conjugate with the same linker moiety and active agent where the NTSR1-targeting domain has been scrambled.

| Compound | IC50 [nM] |
| --- | --- |
| COc1cc2cc(c1Cl)N(C)C(=O)C[C@H](OC(=O)[C@H](C)N(C)C(=O)CCSC1CC(=O)N(CCCNC(=O)CNC(=O)[C@H](CC(C)C)NC(=O)[C@H](Cc3ccccc3)NC(=O)CNC(=O)CCCCCN3C(=O)CC(SCCC(=O)NCCOCCOCCOCCOCCC(=O)NCCCC[C@H](NC(C)=O)C(=O)N4CCC[C@H]4C(=O)N[C@@H](CC(C)C)C(=O)N4CCC[C@H]4C(=O)N(C)[C@@H](CCCNC(=N)N)C(=O)N[C@H](C(=O)N[C@@H](CCCNC(=N)N)C(=O)N[C@@H](Cc4ccc(O)cc4)C(=O)O)C(C)(C)C)C3=O)C1=O)[C@]1(C)O[C@H]1[C@H](C)[C@@H]1C[C@@](O)(NC(=O)O1)[C@H](OC)/C=C/C=C(\C)C2 (stereo partly drawn) [Compound 84] | 48.5 |
| CCc1c2c(nc3ccc(O)cc13)-c1cc3c(c(=O)n1C2)COC(=O)[C@@]3(CC)OC(=O)CNC(=O)CNC(=O)[C@H](CC(C)C)NC(=O)[C@H](Cc1ccccc1)NC(=O)CNC(=O)CCCCCN1C(=O)CC(SC(C)(C)[C@H](NC(C)=O)C(=O)N2CCC[C@H]2C(=O)N[C@@H](CC(C)C)C(=O)N2CCC[C@H]2C(=O)N[C@@H](CCCNC(=N)N)C(=O)N[C@H](C(=O)N[C@@H](CCCNC(=N)N)C(=O)N[C@@H](Cc2ccc(O)cc2)C(=O)O)C(C)(C)C)C1=O (stereo partly drawn) [Compound 99] | 784 |

same assay, conditions: NTSR1 targeted compound; 72 hrs; read-out: SW-48 proliferation IC50

| Compound | IC50 [nM] |
| --- | --- |
| COc1cc2cc(c1Cl)N(C)C(=O)C[C@H](OC(=O)[C@H](C)N(C)C(=O)CCSC1CC(=O)N(CCCNC(=O)CNC(=O)[C@H](CC(C)C)NC(=O)[C@H](Cc3ccccc3)NC(=O)CNC(=O)CCCCCN3C(=O)CC(SCCC(=O)NCCOCCOCCOCCOCCC(=O)NCCCC[C@H](NC(C)=O)C(=O)N4CCC[C@H]4C(=O)N(C)[C@@H](CCCNC(=N)N)C(=O)N[C@@H](CCCNC(=N)N)C(=O)N4CCC[C@H]4C(=O)N[C@@H](Cc4ccc(O)cc4)C(=O)N[C@H](C(=O)N[C@@H](CC(C)C)C(=O)O)C(C)(C)C)C3=O)C1=O)[C@]1(C)O[C@H]1[C@H](C)[C@@H]1C[C@@](O)(NC(=O)O1)[C@H](OC)/C=C/C=C(\C)C2 (stereo partly drawn) [Compound 25] | 2.2 |
| COc1cc2cc(c1Cl)N(C)C(=O)C[C@H](OC(=O)[C@H](C)N(C)C(=O)CCSC1CC(=O)N(CCCNC(=O)CNC(=O)[C@H](CC(C)C)NC(=O)[C@H](Cc3ccccc3)NC(=O)CNC(=O)CCCCCN3C(=O)CC(SCCC(=O)NCCCC[C@H](NC(C)=O)C(=O)N4CCC[C@H]4C(=O)N(C)[C@@H](CCCNC(=N)N)C(=O)N[C@@H](CCCNC(=N)N)C(=O)N4CCC[C@H]4C(=O)N[C@@H](Cc4ccc(O)cc4)C(=O)N[C@H](C(=O)N[C@@H](CC(C)C)C(=O)O)C(C)(C)C)C3=O)C1=O)[C@]1(C)O[C@H]1[C@H](C)[C@@H]1C[C@@](O)(NC(=O)O1)[C@H](OC)/C=C/C=C(\C)C2 (stereo partly drawn) [Compound 23] | 38.6 |
| CO[C@H]1C(=O)[C@]2(C)[C@@H](OC)C[C@H]3OC[C@@]3(OC(C)=O)[C@H]2[C@H](OC(=O)c2ccccc2)[C@]2(O)C[C@H](OC(=O)[C@H](OC(=O)N(C)CCCNC(=O)CNC(=O)[C@H](CC(C)C)NC(=O)[C@H](Cc3ccccc3)NC(=O)CNC(=O)CCCCCN3C(=O)CC(SCCC(=O)NCCCC[C@H](NC(C)=O)C(=O)N4CCC[C@H]4C(=O)N(C)[C@@H](CCCNC(=N)N)C(=O)N[C@@H](CCCNC(=N)N)C(=O)N4CCC[C@H]4C(=O)N[C@@H](Cc4ccc(O)cc4)C(=O)N[C@H](C(=O)N[C@@H](CC(C)C)C(=O)O)C(C)(C)C)C3=O)[C@@H](NC(=O)OC(C)(C)C)c3ccccc3)C(C)=C1C2(C)C (stereo partly drawn) [Compound 9] | > 10000 |
| CC[C@H](C)[C@@H]([C@@H](CC(=O)N1CCC[C@H]1[C@H](OC)[C@@H](C)C(=O)N[C@H](C)[C@@H](O)c1ccccc1)OC)N(C)C(=O)[C@@H](NC(=O)[C@H](C(C)C)N(C)C(=O)OCc1ccc(NC(=O)[C@H](CCCNC(N)=O)NC(=O)[C@@H](NC(=O)CCCCCN2C(=O)CC(SCCC(=O)NCCOCCOCCOCCOCCC(=O)NCCCC[C@H](NC(C)=O)C(=O)N3CCC[C@H]3C(=O)N(C)[C@@H](CCCNC(=N)N)C(=O)N[C@@H](CCCNC(=N)N)C(=O)N3CCC[C@H]3C(=O)N[C@@H](Cc3ccc(O)cc3)C(=O)N[C@H](C(=O)N[C@@H](CC(C)C)C(=O)O)C(C)(C)C)C2=O)C(C)C)cc1)C(C)C (stereo partly drawn) [Compound 61] | 33.7 |
| CC[C@H](C)[C@@H]([C@@H](CC(=O)N1CCC[C@H]1[C@H](OC)[C@@H](C)C(=O)N[C@H](C)[C@@H](O)c1ccccc1)OC)N(C)C(=O)[C@@H](NC(=O)[C@H](C(C)C)N(C)C(=O)OCc1ccc(NC(=O)[C@H](CCCNC(N)=O)NC(=O)[C@@H](NC(=O)CCCCCN2C(=O)CC(SCCC(=O)NCCOCCOCCOCCOCCOCCOCCOCCOCCC(=O)NCCCC[C@H](NC(C)=O)C(=O)N3CCC[C@H]3C(=O)N(C)[C@@H](CCCNC(=N)N)C(=O)N[C@@H](CCCNC(=N)N)C(=O)N3CCC[C@H]3C(=O)N[C@@H](Cc3ccc(O)cc3)C(=O)N[C@H](C(=O)N[C@@H](CC(C)C)C(=O)O)C(C)(C)C)C2=O)C(C)C)cc1)C(C)C (stereo partly drawn) [Compound 62] | 50.1 |
